From ChEMBL document CHEMBL1909046, “DrugMatrix in vitro pharmacology data”

What was measured:
[1] = DRUGMATRIX: Interleukin IL-1 radioligand binding (ligand: [125I] interleukin 1beta); type: cell membranes, Membrane; conditions: nih3t3; Not Active = under 50% inhibition at 10 µM
Cannabinoid receptor 1 = Cannabinoid receptor 1 (Homo sapiens, UniProt P21554); type: cell membranes, Chem-1, Membrane; conditions: chem-1; further: in other assays of this panel Not Active means under 50% inhibition at 10 µM
D(4) dopamine receptor = target: T1, D(4) dopamine receptor (Homo sapiens, UniProt P21917); test: DRUGMATRIX: Dopamine D4.2 radioligand binding (ligand: [3H] Spiperone); type: cell membranes, Membrane; conditions: cho-k1; Not Active = under 50% inhibition at 10 µM
T1 sequence (P21917 whole entry): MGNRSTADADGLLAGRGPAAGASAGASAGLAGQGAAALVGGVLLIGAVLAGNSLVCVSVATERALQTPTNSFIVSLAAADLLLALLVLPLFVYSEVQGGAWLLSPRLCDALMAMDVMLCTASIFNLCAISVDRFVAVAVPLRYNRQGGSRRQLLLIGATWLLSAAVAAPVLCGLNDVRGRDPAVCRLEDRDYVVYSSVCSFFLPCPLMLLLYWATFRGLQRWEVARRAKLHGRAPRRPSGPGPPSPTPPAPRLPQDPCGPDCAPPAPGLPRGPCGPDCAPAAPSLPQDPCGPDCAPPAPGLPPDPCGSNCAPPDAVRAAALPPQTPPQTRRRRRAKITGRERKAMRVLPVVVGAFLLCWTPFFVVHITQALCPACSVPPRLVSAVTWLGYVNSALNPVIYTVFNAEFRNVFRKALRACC

[2] = target: T2, C-C chemokine receptor type 4 (Homo sapiens, UniProt P51679); type: cell membranes, Membrane; conditions: chem-1; further: in other assays of this panel Not Active means under 50% inhibition at 10 µM
T2 sequence (P51679 whole entry): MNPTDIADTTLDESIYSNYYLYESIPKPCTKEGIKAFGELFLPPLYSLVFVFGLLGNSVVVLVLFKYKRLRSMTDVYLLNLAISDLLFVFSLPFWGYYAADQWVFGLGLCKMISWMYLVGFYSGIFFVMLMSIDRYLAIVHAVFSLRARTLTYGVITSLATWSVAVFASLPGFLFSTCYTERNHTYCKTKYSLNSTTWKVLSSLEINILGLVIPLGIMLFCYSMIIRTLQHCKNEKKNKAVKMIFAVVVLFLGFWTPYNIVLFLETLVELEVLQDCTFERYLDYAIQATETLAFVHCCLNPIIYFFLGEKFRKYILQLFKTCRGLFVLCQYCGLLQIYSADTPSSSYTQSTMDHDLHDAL

[3] = target: Voltage-gated inwardly rectifying potassium channel KCNH2 (Homo sapiens, UniProt Q12809); conditions: hek293; further: in other assays of this panel Not Active means under 50% inhibition at 10 µM
[4] = DRUGMATRIX: Platelet-Derived Growth Factor (PDGF) radioligand binding (ligand: [125I] PDGF); type: cell-based; conditions: nih3t3; Not Active = under 50% inhibition at 10 µM
Progesterone receptor = target: T3, Progesterone receptor (Bos taurus, UniProt Q690N0); test: DRUGMATRIX: Progesterone radioligand binding (ligand: [3H] R-5020); type: tissue-based, Uterus; conditions: Not Active = under 50% inhibition at 10 µM
T3 sequence (Q690N0 whole entry): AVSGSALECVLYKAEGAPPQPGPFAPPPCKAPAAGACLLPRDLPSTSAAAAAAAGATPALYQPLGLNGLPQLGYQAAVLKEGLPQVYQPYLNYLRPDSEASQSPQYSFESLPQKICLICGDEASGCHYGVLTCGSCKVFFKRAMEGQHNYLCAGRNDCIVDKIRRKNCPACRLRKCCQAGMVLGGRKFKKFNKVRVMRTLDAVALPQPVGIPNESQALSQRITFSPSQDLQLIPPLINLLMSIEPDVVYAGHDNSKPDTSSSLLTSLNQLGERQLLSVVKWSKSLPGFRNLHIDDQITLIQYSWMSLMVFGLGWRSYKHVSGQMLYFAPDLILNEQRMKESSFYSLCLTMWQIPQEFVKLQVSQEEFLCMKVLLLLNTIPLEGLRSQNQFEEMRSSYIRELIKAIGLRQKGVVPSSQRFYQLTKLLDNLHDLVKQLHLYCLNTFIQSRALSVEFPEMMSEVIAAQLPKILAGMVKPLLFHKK

[5] = DRUGMATRIX: Phosphodiesterase PDE4 enzyme inhibition (substrate: [3H]cAMP + cAMP); conditions: u-937; Not Active = under 50% inhibition at 10 µM

Voltage-gated inwardly rectifying potassium channel KCNH2, sequence (Q12809 whole entry): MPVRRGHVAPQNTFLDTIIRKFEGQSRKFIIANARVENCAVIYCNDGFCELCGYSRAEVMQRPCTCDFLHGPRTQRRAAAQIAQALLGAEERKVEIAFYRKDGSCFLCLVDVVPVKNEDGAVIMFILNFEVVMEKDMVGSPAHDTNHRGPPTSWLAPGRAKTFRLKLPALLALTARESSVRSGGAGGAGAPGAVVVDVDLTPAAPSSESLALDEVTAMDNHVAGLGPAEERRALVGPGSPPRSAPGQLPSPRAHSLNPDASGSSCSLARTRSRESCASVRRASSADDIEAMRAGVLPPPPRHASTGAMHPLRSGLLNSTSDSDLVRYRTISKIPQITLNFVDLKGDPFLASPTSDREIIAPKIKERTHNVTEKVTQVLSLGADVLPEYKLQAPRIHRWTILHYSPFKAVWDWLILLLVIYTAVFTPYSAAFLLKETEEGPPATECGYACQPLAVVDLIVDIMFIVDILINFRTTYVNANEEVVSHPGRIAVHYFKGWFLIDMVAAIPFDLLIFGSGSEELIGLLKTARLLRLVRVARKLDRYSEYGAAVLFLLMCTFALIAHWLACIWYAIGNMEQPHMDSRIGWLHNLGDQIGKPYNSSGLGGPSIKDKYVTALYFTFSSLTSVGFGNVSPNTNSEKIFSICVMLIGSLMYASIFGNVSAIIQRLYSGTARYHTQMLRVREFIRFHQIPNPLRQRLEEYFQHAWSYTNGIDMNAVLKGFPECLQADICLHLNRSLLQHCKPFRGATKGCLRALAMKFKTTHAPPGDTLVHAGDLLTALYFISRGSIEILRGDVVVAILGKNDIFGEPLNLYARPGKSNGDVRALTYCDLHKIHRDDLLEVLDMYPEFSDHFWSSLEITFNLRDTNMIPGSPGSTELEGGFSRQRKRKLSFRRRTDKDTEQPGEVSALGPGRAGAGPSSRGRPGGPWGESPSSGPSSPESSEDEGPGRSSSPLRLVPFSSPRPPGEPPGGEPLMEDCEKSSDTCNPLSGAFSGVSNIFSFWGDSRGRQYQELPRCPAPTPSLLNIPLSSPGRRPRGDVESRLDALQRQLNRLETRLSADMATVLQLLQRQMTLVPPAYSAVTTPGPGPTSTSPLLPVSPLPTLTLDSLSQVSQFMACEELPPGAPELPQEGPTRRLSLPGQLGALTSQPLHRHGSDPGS
Cannabinoid receptor 1, sequence (P21554 whole entry): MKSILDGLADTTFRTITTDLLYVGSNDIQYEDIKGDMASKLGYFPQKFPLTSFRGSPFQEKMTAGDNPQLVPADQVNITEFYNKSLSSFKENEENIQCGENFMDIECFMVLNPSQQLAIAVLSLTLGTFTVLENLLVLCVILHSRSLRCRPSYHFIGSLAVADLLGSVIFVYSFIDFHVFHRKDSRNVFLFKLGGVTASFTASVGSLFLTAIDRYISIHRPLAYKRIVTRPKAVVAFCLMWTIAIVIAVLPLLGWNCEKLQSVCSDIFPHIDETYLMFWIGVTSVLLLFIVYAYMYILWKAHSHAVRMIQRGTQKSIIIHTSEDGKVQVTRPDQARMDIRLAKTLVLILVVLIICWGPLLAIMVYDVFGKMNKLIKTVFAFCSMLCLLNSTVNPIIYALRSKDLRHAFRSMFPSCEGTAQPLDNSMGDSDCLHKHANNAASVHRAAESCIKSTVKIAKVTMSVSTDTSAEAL

CADMIUM DICHLORIDE
Not Active: IC50 [1] | Ki [1] | IC50 (Cannabinoid receptor 1) | Ki (Cannabinoid receptor 1) | IC50 (D(4) dopamine receptor) | Ki (D(4) dopamine receptor) | IC50 [2] | Ki [2] | IC50 [3] | Ki [3] | IC50 [4] | Ki [4] | IC50 (Progesterone receptor) | Ki (Progesterone receptor) | IC50 [5] | Ki [5]
